Test results published in ChEMBL document CHEMBL1148047, “Two steroidal alkaloids from a sponge, Corticium sp” (J Nat Prod, 1994).
Values after ≈ are worked out from the molar mass of the structure shown.

Legend:
P388 = test: Cytotoxicity against mouse P388 cells; type: functional, cell-based
A549 = test: Cytotoxicity against human A549 cells; type: functional, cell-based
HT-29 = test: Cytotoxicity against human HT-29 cells; type: functional, cell-based
SK-MEL-28 = test: Cytotoxicity against human SK-MEL-28 cells; type: functional, cell-based
Lymphocyte [1] = test: Immunomodulatory activity against lymphocytes by mixed lymphocyte reaction method; type: functional
Bacillus subtilis = test: Antimicrobial activity against Bacillus subtilis at 50 ug/disk; type: functional; settings: read-out: IZ
Candida albicans = test: Antimicrobial activity against Candida albicans at 50 ug/disk; type: functional; settings: read-out: IZ
Lymphocyte [2] = test: Immunomodulatory activity against lymphocytes by lymphocyte viability assay; type: functional
Lymphocyte [3] = test: Ratio of immunomodulatory activity against lymphocytes by lymphocyte viability assay to immunomodulatory activity against lymphocytes by mixed lymphocyte reaction method; type: functional

| Compound | IC50 (P388) | IC50 (A549) | IC50 (HT-29) | IC50 (SK-MEL-28) | Activity (Lymphocyte [1]) | zone of inhibition at 50 µg/disc (Bacillus subtilis) | zone of inhibition at 50 µg/disc (Candida albicans) | Activity (Lymphocyte [2]) | Ratio IC50 (Lymphocyte [3]) |
| --- | --- | --- | --- | --- | --- | --- | --- | --- | --- |
| CC(C)=C1CCN=C1C[C@@H](C)[C@H]1CC[C@H]2C3=CC[C@H]4[C@@H](O)[C@@H](N(C)C)CC[C@]4(C)[C@H]3CC[C@]12C [LOKYSTEROLAMINE A] | 0.5 mg/L (≈ 1.07 µM) | 0.5 mg/L (≈ 1.07 µM) | 1 mg/L (≈ 2.14 µM) | 5 mg/L (≈ 10.7 µM) | 0.13 | 19 mm | 11 mm | >25 | >187 |
| CC(=O)N[C@H]1CC[C@]2(C)[C@H]3CC[C@]4(C)[C@@H]([C@H](C)CC5=NCCC5=C(C)C)CC[C@H]4C3=CC[C@H]2[C@H]1O [LOKYSTEROLAMINE B] | 1 mg/L (≈ 2.08 µM) | 0.5 mg/L (≈ 1.04 µM) | 1 mg/L (≈ 2.08 µM) | > 2 mg/L | 0.48 | 8 mm | 0 mm | >12.5 |  |
